B1: E: CD109-based peptide (67 aa), SEQ ID NO: 20 (protein)
chain: LTKDYIDGVYDNAEYAERFMEENEGHIVDIHDFSLGSSPHVRKHFPETWIWLDTNMGSRIYQEFEVTV
modifications: Peptide E
B2: B: CD109-based peptide (100 aa), SEQ ID NO: 19 (protein)
chain: TMENVVHELELYNTGYYLGMFMNSFAVFQECGLWVLTDANLTKDYIDGVYDNAEYAERFMEENEGHIVDIHDFSLGSSPHVRKHFPETWIWLDTNMGSRIYQEFEVT
modifications: Peptide B

Experiments:
[1] = system: TGF-β-induced EMT in HaCaT cells; assay: Immunofluorescence of F-actin and E-cadherin in HaCaT cells with pathway inhibitors; format: cell-based, human; conditions: 0.5 μM SB431542, 1 μM SB203580, 10 μM U0126
Procedure: HaCaT cells transfected with control or CD109 siRNA were treated for 36 hrs with 100 pM TGF-β1, in the presence or absence of 0.5 μM SB431542, 1 μM SB203580 and/or 10 μM U0126. Cells were fixed and stained for F-actin, E-cadherin and with DAPI. […] (FIG. 16B) Densitometry of F-actin staining (mean of n=3 independent experiments±SEM; *P<0.05).
Cells were treated with 0-100 pM TGF-β1, in the presence or absence of 10 μM U0126 (Cell signaling Technologies), 1 μM SB203580, 0.5 μM SB431542 (both from Ascent) for 36-40 hrs. Cells were fixed with 4% paraformaldehyde for 10 min at 37° C. and non-specific sites were blocked with 10% NGS, 0.1% Triton X-100 in PBS. E-cadherin was detected using a FITC-conjugated anti-E-cadherin antibody (BD Biosciences), followed by an AlexaFluor488™-conjugated anti-FITC antibody (Molecular Probes). F-actin was detected using Rhodamin-conjugated phalloidin (Cytoskeleton, Denvers, Colo.) and nuclei were stained with DAPI (Sigma Aldrich). Images were acquired with an Olympus BX60 fluorescent microscope coupled to a QColor3™ camera (Olympus) using Image ProPlus™ 6.0 software.

[2] = system: TGF-β-induced fibronectin and Slug expression in HaCaT cells; assay: Western blot for fibronectin and Slug in HaCaT cells with pathway inhibitors; format: cell-based, human
[3] = system: TGF-β-induced migration of squamous cell carcinoma (A431) cells; assay: Scratch (wound closure) migration assay, A431 cells; format: cell-based; conditions: 10 nM peptide, 100 pM TGF-β1, 24 hours (FIG. 10)
Procedure: FIG. 10A and FIG. 10B illustrate that peptides B, E and X-1 inhibit TGF-β-induced cellular migration of A431 cells in vitro. Results are shown prior to treatment (0 hr, top panels) and after treatment (24 hr, bottom panels) for each of the peptides used. (See FIG. 2 and Table 1 for the amino acid sequence identity of the peptides).
A431 cells were grown to 80-90% confluence and serum-starved overnight. The next day, cells were scratched with a plastic pipette tip (time 0 hour) and then left untreated or treated for 24 hours with 100 pM TGF-β1 alone or in the presence of P16 as indicated. (FIG. 27A) Digital images were captured at 0 h and 24 h using an EVOS XL Core microscope. (FIG. 27B) Micrographs were subsequently quantitated to determine the percentage of the wound area that had closed following 24 hours in the presence or absence of P16, as indicated.
Cells were scratched with a pipette tip and treated without or with 100 pM TGF-b1 alone or in the presence of 10 nM Peptide A or Peptide A1 (C31S mutant). Pictures were taken at 0 and 24 hrs. Peptide A but not Peptide A1 inhibits TGF-b-induced migration in A431 cells. Peptide A contains monomeric and dimeric forms whereas Peptide A1 contains a C31S mutation to prevent intermolecular disulfide bond formation so that it forms monomers only.
(§1) Squamous cell carcinoma (A431) or breast cancer (MDA-MB-231) cells were grown to 80-90% confluence and serum-starved overnight. The next day, cells were scratched with a plastic pipette tip (time 0 hour) and then left untreated or treated for 24 hours with 100 pM TGF-β1 alone or in the presence of 10 nM peptide B (100 aa), E (67 aa), or X1 (P28, 28 aa). Digital images were captured at 0 h and 24 h (20× magnification) using an EVOS XL Core microscope.

[4] = system: TGF-β-induced migration of breast cancer (MDA-MB-231) cells; assay: Scratch migration assay, MDA-MB-231 cells; format: cell-based; conditions: 10 nM peptide, 100 pM TGF-β1, 24 hours (FIG. 11)
Procedure: FIG. 11A and FIG. 11B illustrate that peptides B, E and X-1 inhibit TGF-β-induced cellular migration of MDA-MB-231 cells in vitro. Results are shown prior to treatment (0 hr, top panels) and after treatment (24 hr, bottom panels) for each of the peptides used.
as §1

Molecule | effect mediated by CD109 siRNA transfection on actin stress fibers appearance and relocalization of E-cadherin ([1]; 100 pM TGF-β1, 36 hrs) | effect on EMT markers in the absence of TGF-β ([1]; data not shown) | fibronectin production ([2]; CD109 siRNA HaCaT cells, 100 pM TGF-β1, 16 hrs, 0.5 μM SB431542, 1 μM SB203580, 10 μM U0126) | Slug expression ([2]; control siRNA and CD109 siRNA HaCaT cells, absence or presence of TGF-β, 1 μM SB203580) | inhibition of TGF-β-induced cellular migration of A431 cells [3] | inhibition of TGF-β-induced cellular migration of MDA-MB-231 cells [4]
C[S+]([O-])c1ccc(-c2nc(-c3ccncc3)c(-c3ccc(F)cc3)[nH]2)cc1 (centres unmarked) [SB203580] | reduces (but does not abrogate) | no effect | reduced | increases | – | –
B1 | – | – | – | – | inhibit | inhibit
B2 | – | – | – | – | inhibit | inhibit

Source: patent publication US11787850B2, “Peptidic TGF-beta antagonists” (priority 2015, dated 2023)
